# Data published in US20220048987A1, “METHOD OF TREATMENT TO PREVENT OR REVERSE AGE-ASSOCIATED INFLAMMATION, COGNITIVE DECLINE, AND NEURODEGENERATION” (The Board of Trustees of the Leland Stanford Junior …, priority 2020, published 2022).
# Experiments:
# Type in all cases: cell-based
# [1] = system: human monocyte-derived macrophages (human MDMs); assay: Real-time oxygen consumption rate (OCR) and ECAR (Seahorse) in human MDMs; settings: 20 h
# Description: (§1) Cells were plated at 1.8×10^6 cells per well in a Seahorse XF24 Cell Culture Microplate (Agilent). Cells were then treated with indicated inhibitors or agonists in each experiment for 20 h. Cells were washed twice with Agilent Seahorse XF Media (Agilent) supplemented with 1 mM pyruvate, 2 mM L-glutamine, and 10 mM D-glucose; a final volume of 525 μl was placed in each well. Cells were then incubated in a 0% CO2 chamber at 37° C. for 1 h before being placed into a Seahorse XFe24 Analyzer (Agilent). For OCR and ECAR mitostress test experiments, cells were treated with 1 μM oligomycin, 2 μM carbonyl cyanide p-trifluoromethoxyphenylhydrazone (FCCP), and 0.5 μM rotenone/antimycin (indicated by three black arrows in each seahorse trace). For mitoFlex Fuel test experiments, cells were treated with UK5099 (200 μM) and BPTES (200 μM)/Etomoxir (80 μM). A total of three OCR and pH measurements were taken after each compound was administered. All Seahorse experiments were repeated at least three times unless otherwise indicated. All OCR and ECAR data were normalized to cell number per well using CyQUANT (ThermoFisher Scientific, Waltham, Mass., USA).
# Peripheral blood mononuclear cells from de-identified healthy donors (young<35 years old, aged>65 years old) were obtained from the Stanford Blood Center and transferred to 50 ml conical tubes. Samples were diluted with 20 ml PBS and layered onto 10 ml of Ficoll-Paque (GE Healthcare) using a Pasteur pipette. Tubes were centrifuged at 1,500 r.p.m. for 25 min without brake at 20° C. The mononuclear cell layer was transferred to a new 50 ml conical tube, resuspended in 50 ml 1×PBS and centrifuged at 1500 r.p.m. for 10 min, repeated twice. After centrifugation, monocytes were isolated using a Monocyte Isolation Kit, human (MACS; Miltenyi Biotech). Cells were then plated 10×10^6 per 10-cm petri dish and differentiated for 7 days in Roswell Park Memorial Institute (RPMI) media supplemented with 10% FBS, 1% penicillin-streptomycin, and 50 ng ml^−1 M-CSF (Peprotech).
# [2] = system: mouse hippocampal neurons; assay: OCR and ECAR (Seahorse) in mouse hippocampal neurons; settings: primary mouse hippocampal neurons, 100 nM, 20 h
# Description: as §1
# Hippocampi were dissected from embryonic Day 17.5 mice embryos, dissociated using trypsin (2 mg/ml) and DNase I (0.6 mg/ml), and plated at a density of 100, 000 cells per well in Seahorse XF24 culture plate coated with poly-L-lysine. […]
# [3] = system: mouse astrocytes; assay: OCR and ECAR (Seahorse) in mouse astrocytes; settings: primary mouse astrocytes, 100 nM, 20 h
# Description: as §1
# Primary astrocyte cultures were prepared from cerebral cortices of postnatal day 1-2 C57BL/6J mice. […]
# [4] = system: mouse peritoneal macrophages; assay: OCR and ECAR (Seahorse) in mouse peritoneal macrophages; settings: aged (18-20 mo) mouse peritoneal macrophages, 100 nM, 20 h
# Description: as §1, with “USA). […]” for “USA).”
# Cd11bCre, and WT mice. Mice were injected intraperitoneally with 1.5 ml 3% (w/v) thioglycolate medium (BD Biosciences), and primary macrophages were isolated 3-4 days later by flushing with ice-cold 1×PBS buffer (Corning). […]
# [5] = system: human MDMs; assay: Chemokine and cytokine multiplex assay, supernatant of human MDMs; settings: aged (>65 yo) human MDMs, stimulated 8 h later
# Description: Hippocampal lysates or mouse plasma were stored at −80° C. and cytokine analysis was carried out at the Human Immune Monitoring Core (Stanford University) or Eve Technologies (Calgary, Alberta, Canada) using Luminex mouse 39-plex kits and Human 71-plex kits. Plates were read using a Luminex LabMap200 instrument or a MSD Chemiluminescence instrument with a lower bound of 100 beads per sample per measured cytokine. Each sample was tested in triplicate. Mean fluorescence intensity (MFI) was averaged over duplicate wells for each cytokine per sample on each plate. All were transcardially perfused prior to isolation of hippocampi and other brain tissue.
# Peripheral blood mononuclear cells from de-identified healthy donors (young<35 years old, aged>65 years old) were obtained from the Stanford Blood Center and transferred to 50 ml conical tubes. […]
# Plasmid-containing human GYS1 shRNA (Table 3) or Scr (2 μg) (HuSH shRNA shGYS1 Lenti Cloning Vector [pGFP-C-shLenti]) were incubated with a mixture of nucleofection solution and P4 primary cell supplement (82 μl:18 μl nucleofection solution:supplement) and placed in nucleofection cuvettes. […] Cells were then plated in 10-cm plates and incubated 37° C. under 5% CO2 for 8 h before GYS1 protein expression was analyzed by quantitative immunoblotting.
SMILES,"ECAR (extracellular acidification rate, glycolysis) ([1]; human MDMs, dose response)","basal OCR (oxygen consumption) ([1]; human MDMs, dose response)",OCR and ECAR [2],OCR and ECAR [3],basal respiration and ECAR [4],"OCR in GYS1-deficient aged human MDMs ([1]; aged (>65 yo) human MDMs nucleofected with shGYS1, 100 nM, 8 h post nucleofection)","bioenergetic or immune factor phenotypes of aged human MDMs lacking GYS1 ([1]; aged human MDMs + GYS1 shRNA, 100 nM)",immune phenotypes (immune factors in supernatant) of aged human MDMs + GYS1 shRNA [5]
"CCCCC[C@H](O)/C=C/[C@H]1[C@H](O)CC(=O)[C@@H]1C/C=C\CCCC(=O)O [PGE2, prostaglandin E2]",decreased glycolysis,suppressed oxygen consumption,no significant effects,no significant effects,,,,
NS(=O)(=O)c1ccc(-n2nc(C(F)(F)F)cc2-c2ccc(Cl)cc2)cc1 [SC236],,,,,partially phenocopies EP2 receptor antagonism,,,
CCCC1([C@H](O)C/C=C/[C@H]2[C@H](O)CC(=O)[C@@H]2CCCCCCC(=O)OC)CCC1 [butaprost],,,no significant effects,no significant effects,,refractory to treatment,did not alter,refractory to further EP2 receptor activation
